The source of these data is paper PMC11768739 (Viruses, 2025).

Where two headings read alike, the source gives them in different places. Some results are limits rather than exact numbers.

The target in test [1] is T1, EV68-3C protease (enterovirus D68, UniProt A1E4A3). The test is described as follows: FRET peptide cleavage assay (DABCYL/EDANS 10-mer, 2C/3A site). Type of test: biochemical.
Test [2] addresses T1, EV68-3C protease. Described as above. Format: biochemical. Particulars: covalent (irreversible); 60 min preincubation; 25 nM enzyme; 10 μM substrate; 50 mM HEPES pH 7.5, 100 mM NaCl, 3% DMSO; unreliable is not stated.

T1 sequence (A1E4A3 entry or part of it): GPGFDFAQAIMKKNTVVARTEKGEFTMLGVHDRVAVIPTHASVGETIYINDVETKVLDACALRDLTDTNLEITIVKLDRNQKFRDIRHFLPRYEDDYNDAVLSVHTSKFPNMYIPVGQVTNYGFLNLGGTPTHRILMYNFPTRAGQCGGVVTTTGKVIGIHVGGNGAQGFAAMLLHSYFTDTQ

As usually defined, the IC50 is the concentration needed to halve the response being measured. `COc1cccc2[nH]c(C(=O)N[C@@H](CC(C)C)C(=O)N[C@@H](C[C@@H]3CCNC3=O)C(=O)CO)cc12` [PF-00835231] had a concentration for half-maximal inhibition (IC50) against EV68-3C protease [1] of 1.8 ± 0.2 µM.

The molecule `Cn1cnc(Cn2c(=O)[nH]/c(=N\c3cc4cn(C)nc4cc3Cl)n(Cc3cc(F)c(F)cc3F)c2=O)n1` [ensitrelvir] came in with a half-inhibitory concentration (IC50) at EV68-3C protease [1] of more than 10 µM.

Regarding `CC(C)(C)[C@H](NC(=O)C(F)(F)F)C(=O)N1C[C@H]2[C@@H]([C@H]1C(=O)N[C@H](C#N)C[C@@H]1CCNC1=O)C2(C)C` [nirmatrelvir], the IC50 against EV68-3C protease [1] was more than 10 µM.

On to `CCOC(=O)/C=C/[C@H](C[C@@H]1CCNC1=O)NC(=O)[C@@H](CC(=O)[C@@H](NC(=O)c1cc(C)on1)C(C)C)Cc1ccc(F)cc1` [rupintrivir], for which the “IC50” value on EV68-3C protease [2] is 7.8 ± 0.6 nM.
